# Experiments:
# [1] = test system: RAW264.7; test: Inhibition of LPS-induced NO production in mouse RAW264.7 cells after 24 hrs by Griess method; type: functional, cell-based; settings: RAW264.7, 24 h
# [2] = Cytotoxicity against mouse RAW264.7 cells assessed as cell viability at 0.5 to 50 uM; type: cell-based; settings: read-out: Activity
IC50 [1],SMILES,viability at up to 50 µM [2]
28.2 µM,CC(C)C(=O)O[C@H]1c2c(ccc3ccc(=O)oc23)OC(C)(C)[C@H]1OC(=O)C(C)C,> 90%
44.3 µM,CC(=O)O[C@H]1c2c(ccc3ccc(=O)oc23)OC(C)(C)[C@H]1OC(=O)C=C(C)C,> 90%
18.8 µM,CC(=O)O[C@H]1c2c(ccc3ccc(=O)oc23)OC(C)(C)[C@H]1OC(=O)CC(C)C,> 90%
7.4 µM,CC(C)CC(=O)O[C@H]1c2c(ccc3ccc(=O)oc23)OC(C)(C)[C@H]1OC(=O)CC(C)C,> 90%
9.9 µM,CC(C)=CC(=O)O[C@H]1c2c(ccc3ccc(=O)oc23)OC(C)(C)[C@H]1OC(=O)CC(C)C,> 90%
9.8 µM,CC(C)=CC(=O)O[C@H]1c2c(ccc3ccc(=O)oc23)OC(C)(C)[C@H]1OC(=O)C=C(C)C,> 90%

SMILES,IC50 [1],viability at up to 50 µM [2]
N=C(N)NN [PIMAGEDINE],16.9 µM,–

# Source: ChEMBL document CHEMBL3286208, “Pyranocoumarins from Glehnia littoralis inhibit the LPS-induced NO production in macrophage RAW 264.7 cells” (Bioorg Med Chem Lett, 2014)
